Measurements as given in ChEMBL document CHEMBL1201862, “PubChem BioAssay data set” (2004).
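Compound exposure: 48 hours, 5 concentrations, 96-well plates. Abbreviation: GI50, concentration required for 50% inhibition of growth.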 Active and inactive are the calls of the source. Rule as the data show it: active = GI50 up to about 1.1 µM and inactive = higher.

Legend:
Assay in all cases: DTP human tumour cell line panel, 48 h
PC-3 = tested on: PC-3
MOLT-4 = tested on: MOLT-4
NCI/ADR-RES = tested on: NCI/ADR-RES
KM12 = tested on: KM12
RXF 393 = tested on: RXF 393
IGROV-1 = tested on: IGROV-1
UACC-62 = tested on: UACC-62
A549 = tested on: A549
SK-MEL-5 = tested on: SK-MEL-5
NCI-H23 = tested on: NCI-H23
HT-29 = tested on: HT-29
K562 = tested on: K562
786-0 = tested on: 786-0
T47D = tested on: T47D
NCI-H226 = tested on: NCI-H226
MCF7 = tested on: MCF7
HL-60 = tested on: HL-60
SK-MEL-28 = tested on: SK-MEL-28
HCT-15 = tested on: HCT-15
U-251 = tested on: U-251
EKVX = tested on: EKVX
M14 = tested on: M14
SW-620 = tested on: SW-620
DU-145 = tested on: DU-145
NCI-H460 = tested on: NCI-H460
OVCAR-5 = tested on: OVCAR-5
BT-549 = tested on: BT-549
SF-295 = tested on: SF-295
CCRF-CEM = tested on: CCRF-CEM
HCT-116 = tested on: HCT-116
HCC 2998 = tested on: HCC 2998
SK-MEL-2 = tested on: SK-MEL-2
SNB-75 = tested on: SNB-75
A498 = tested on: A498
LOX IMVI = tested on: LOX IMVI
UO-31 = tested on: UO-31
HOP-62 = tested on: HOP-62
OVCAR-8 = tested on: OVCAR-8
OVCAR-4 = tested on: OVCAR-4
Hs-578T = tested on: Hs-578T
RPMI-8226 = tested on: RPMI-8226
NCI-H522 = tested on: NCI-H522
MDA-MB-231 = tested on: MDA-MB-231
ACHN = tested on: ACHN
COLO 205 = tested on: COLO 205
Malme-3M = tested on: Malme-3M
SN12C = tested on: SN12C
CAKI-1 = tested on: CAKI-1
SK-OV-3 = tested on: SK-OV-3
SR = tested on: SR
SF-268 = tested on: SF-268
MDA-N = tested on: MDA-N
MDA-MB-435 = tested on: MDA-MB-435
OVCAR-3 = tested on: OVCAR-3
SNB-19 = tested on: SNB-19
UACC-257 = tested on: UACC-257
SF-539 = tested on: SF-539
HOP-92 = tested on: HOP-92
TK-10 = tested on: TK-10

`Nc1nc2c(C(=O)O)c3ccc([N+](=O)[O-])cc3c(=O)n2c2ccccc12` was tested, and the GI50 (PC-3) was 24.5 µM (inactive), the GI50 (MOLT-4) was 14.4 µM (inactive) and the GI50 (NCI/ADR-RES) was 20.5 µM (inactive). The GI50 (KM12) was 25.8 µM (inactive), the GI50 (RXF 393) was 14.5 µM (inactive) and the GI50 (IGROV-1) was 26.9 µM (inactive). The GI50 (UACC-62) was 28.1 µM (inactive), the GI50 (A549) was 26.2 µM (inactive) and the GI50 (SK-MEL-5) was 24.7 µM (inactive). For the same compound, the GI50 (NCI-H23) was 22.6 µM (inactive), the GI50 (HT-29) was 34.7 µM (inactive) and the GI50 (K562) was 19.5 µM (inactive). The GI50 (786-0) was 20.6 µM (inactive), the GI50 (T47D) was 20.4 µM (inactive) and the GI50 (NCI-H226) was 21.2 µM (inactive). The GI50 (MCF7) was 16.2 µM (inactive), the GI50 (HL-60) was 32.1 µM (inactive) and the GI50 (SK-MEL-28) was 52.8 µM (inactive). The GI50 (HCT-15) was 22.9 µM, the GI50 (U-251) was 27.2 µM (inactive) and the GI50 (EKVX) was 27.9 µM (inactive). The GI50 (M14) was 21.4 µM (inactive), the GI50 (SW-620) was 39 µM (inactive) and the GI50 (DU-145) was 16.5 µM (inactive). For the same compound, the GI50 (NCI-H460) was 30.1 µM (inactive), the GI50 (OVCAR-5) was 31 µM (inactive) and the GI50 (BT-549) was 27.9 µM (inactive). For the same compound, the GI50 (SF-295) was 29.1 µM (inactive), the GI50 (CCRF-CEM) was 42.1 µM (inactive) and the GI50 (HCT-116) was 16.9 µM (inactive). For the same compound, the GI50 (HCC 2998) was 32.3 µM (inactive), the GI50 (SK-MEL-2) was 24.9 µM (inactive) and the GI50 (SNB-75) was 3.44 µM (inactive). The GI50 (A498) was 43.7 µM (inactive), the GI50 (LOX IMVI) was 11.9 µM (inactive) and the GI50 (UO-31) was 29.8 µM (inactive). The GI50 (HOP-62) was 22.5 µM (inactive), the GI50 (OVCAR-8) was 18.7 µM (inactive) and the GI50 (OVCAR-4) was 31 µM (inactive). For the same compound, the GI50 (Hs-578T) was 23.8 µM (inactive), the GI50 (RPMI-8226) was 27.5 µM (inactive) and the GI50 (NCI-H522) was 19.9 µM (inactive). For the same compound, the GI50 (MDA-MB-231) was 24.9 µM (inactive), the GI50 (ACHN) was 33.1 µM (inactive) and the GI50 (COLO 205) was 34.8 µM (inactive). For the same compound, the GI50 (Malme-3M) was 40 µM (inactive), the GI50 (SN12C) was 18 µM (inactive) and the GI50 (CAKI-1) was 34.4 µM (inactive). For the same compound, the GI50 (SK-OV-3) was 21 µM (inactive), the GI50 (SR) was 24.3 µM (inactive) and the GI50 (SF-268) was 33.8 µM (inactive). The GI50 (MDA-N) was 22.8 µM (inactive), the GI50 (MDA-MB-435) was 27.2 µM (inactive) and the GI50 (OVCAR-3) was 21.1 µM (inactive). The GI50 (SNB-19) was 28.5 µM (inactive).
For `Cc1ccc(S(=O)(=O)N2CCC(C(=O)O)(c3ccccc3)CC2)cc1`, the GI50 (PC-3) was > 100 µM (inactive), the GI50 (UACC-257) was > 100 µM (inactive) and the GI50 (MOLT-4) was > 100 µM (inactive). For the same compound, the GI50 (NCI/ADR-RES) was > 100 µM (inactive), the GI50 (KM12) was > 100 µM (inactive) and the GI50 (RXF 393) was > 100 µM (inactive). For the same compound, the GI50 (SF-539) was > 100 µM (inactive), the GI50 (IGROV-1) was > 100 µM (inactive) and the GI50 (UACC-62) was > 100 µM (inactive). For the same compound, the GI50 (A549) was > 100 µM (inactive), the GI50 (SK-MEL-5) was > 100 µM (inactive) and the GI50 (NCI-H23) was > 100 µM (inactive). For the same compound, the GI50 (HT-29) was > 100 µM (inactive), the GI50 (K562) was > 100 µM (inactive) and the GI50 (786-0) was > 100 µM (inactive). For the same compound, the GI50 (HOP-92) was > 100 µM (inactive), the GI50 (T47D) was > 100 µM (inactive) and the GI50 (NCI-H226) was > 100 µM (inactive). For the same compound, the GI50 (MCF7) was > 100 µM (inactive), the GI50 (HL-60) was > 100 µM (inactive) and the GI50 (SK-MEL-28) was > 100 µM (inactive). For the same compound, the GI50 (HCT-15) was greater than 100 µM, the GI50 (U-251) was > 100 µM (inactive) and the GI50 (EKVX) was > 100 µM (inactive). The GI50 (M14) was > 100 µM (inactive), the GI50 (SW-620) was > 100 µM (inactive) and the GI50 (DU-145) was > 100 µM (inactive). The GI50 (NCI-H460) was > 100 µM (inactive), the GI50 (OVCAR-5) was > 100 µM (inactive) and the GI50 (BT-549) was > 100 µM (inactive). The GI50 (SF-295) was > 100 µM (inactive), the GI50 (CCRF-CEM) was > 100 µM (inactive) and the GI50 (TK-10) was > 100 µM (inactive). The GI50 (HCT-116) was > 100 µM (inactive), the GI50 (SK-MEL-2) was > 100 µM (inactive) and the GI50 (SNB-75) was > 100 µM (inactive). For the same compound, the GI50 (A498) was > 100 µM (inactive), the GI50 (LOX IMVI) was > 100 µM (inactive) and the GI50 (UO-31) was > 100 µM (inactive). The GI50 (HOP-62) was > 100 µM (inactive), the GI50 (OVCAR-8) was > 100 µM (inactive) and the GI50 (OVCAR-4) was > 100 µM (inactive). The GI50 (Hs-578T) was > 100 µM (inactive), the GI50 (RPMI-8226) was > 100 µM (inactive) and the GI50 (NCI-H522) was > 100 µM (inactive). The GI50 (MDA-MB-231) was > 100 µM (inactive), the GI50 (ACHN) was > 100 µM (inactive) and the GI50 (COLO 205) was > 100 µM (inactive). For the same compound, the GI50 (Malme-3M) was > 100 µM (inactive), the GI50 (SN12C) was > 100 µM (inactive) and the GI50 (CAKI-1) was > 100 µM (inactive). For the same compound, the GI50 (SK-OV-3) was > 100 µM (inactive), the GI50 (SR) was > 100 µM (inactive) and the GI50 (SF-268) was > 100 µM (inactive). The GI50 (MDA-N) was > 100 µM (inactive), the GI50 (MDA-MB-435) was > 100 µM (inactive) and the GI50 (OVCAR-3) was > 100 µM (inactive). The GI50 (SNB-19) was > 100 µM (inactive).
